Measurements from patent US20240245658A1, “TAAR1 AND SEROTONIN MODULATORS, AND PHARMACEUTICAL COMPOSITIONS, AND METHODS OF USE THEREOF” (Sunovion Pharmaceuticals Inc., priority 2021, published 2024).
Where two headings read alike, the source gives them in different places.

What was measured:
Assay type in all cases: cell-based
human TAAR1 receptors = molecular target: T1, human TAAR1 receptors (Homo sapiens, UniProt Q96RJ0); assay: TAAR1 Agonism Assay: cAMP HTRF assay for Gs coupled receptor TAAR1 (Euroscreen FAST-0987C); conditions: CHO-K1 cells expressing human TAAR1, cAMP HTRF
T1 construct: host or cells: CHO-K1
T1 sequence (Q96RJ0 1-339): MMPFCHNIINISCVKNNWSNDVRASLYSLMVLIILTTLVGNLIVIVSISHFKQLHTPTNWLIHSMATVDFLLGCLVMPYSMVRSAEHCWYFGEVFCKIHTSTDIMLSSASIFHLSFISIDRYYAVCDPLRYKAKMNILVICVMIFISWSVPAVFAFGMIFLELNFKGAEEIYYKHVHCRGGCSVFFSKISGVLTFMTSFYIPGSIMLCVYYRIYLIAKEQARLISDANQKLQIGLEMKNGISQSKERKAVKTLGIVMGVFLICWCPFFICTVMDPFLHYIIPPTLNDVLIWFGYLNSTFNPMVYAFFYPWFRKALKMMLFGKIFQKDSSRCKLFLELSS
How it was run: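 cAMP accumulation detected by HTRF fluorescence ratio, reagents added in lysis buffer and incubated 1 h at about room temperature. Beforehand, cells (about 3,000 per well) sat with test compound at ten concentrations from 0.3 to 10,000 nM in duplicate for roughly 30 min at about room temperature; tyramine dose-response run alongside.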

human 5-HT2A receptor = molecular target: T2, human 5-HT2A receptor (Homo sapiens, UniProt P28223); assay: 5HT2A Antagonism Assay (Euroscreen FAST-05051), IP-One HTRF
T2 construct: host or cells: CHO-K1
How it was run: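 CHO-K1 cells expressing receptor, 20,000/well, co-incubated with test compound and reference agonist at its EC80 for 60 min at 37 °C. IP1 accumulation read by HTRF after ~1 h detection at room temperature. Compounds tested in duplicate at 0.3–10,000 nM.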

human 5-HT7 receptor = molecular target: T3, human 5-HT7 receptor (Homo sapiens, UniProt P34969); assay: 5HT7 Antagonism Assay (Euroscreen FAST-0499C), cAMP HTRF; conditions: CHO-K1 cells expressing human 5-HT7, reference agonist at EC80, cAMP HTRF
T3 construct: host or cells: CHO-K1
How it was run: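 CHO-K1 cells expressing human 5-HT7, 3000 per well in Krebs-Ringer HEPES with 1 mM IBMX, were exposed for 30 minutes at room temperature to compound plus reference agonist at its EC80. cAMP was read by HTRF after 1 hour; compounds were tested in duplicate from 0.3 to 10,000 nM.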

[1] = 5-HT2A (IC50), CHO-K1 cells expressing human 5-HT2A, reference agonist at EC80, IP-One
[2] = read-out: 5-HT2A (IC50), CHO-K1 cells expressing human 5-HT2A, reference agonist at EC80, IP-One

T2 sequence (P28223 whole entry): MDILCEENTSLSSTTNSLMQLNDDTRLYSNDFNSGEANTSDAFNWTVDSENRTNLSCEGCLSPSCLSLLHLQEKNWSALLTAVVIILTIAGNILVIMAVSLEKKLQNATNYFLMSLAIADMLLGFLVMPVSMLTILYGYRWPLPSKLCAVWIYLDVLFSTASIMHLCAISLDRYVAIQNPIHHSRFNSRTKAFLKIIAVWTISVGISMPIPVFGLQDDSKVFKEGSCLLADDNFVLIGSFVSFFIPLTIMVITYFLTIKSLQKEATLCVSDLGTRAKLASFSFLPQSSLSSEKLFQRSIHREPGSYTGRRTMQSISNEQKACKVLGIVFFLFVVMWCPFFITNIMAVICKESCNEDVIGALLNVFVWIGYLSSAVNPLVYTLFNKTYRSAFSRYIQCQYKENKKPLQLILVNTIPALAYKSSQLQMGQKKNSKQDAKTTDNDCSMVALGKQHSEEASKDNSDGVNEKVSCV
T3 sequence (P34969 whole entry): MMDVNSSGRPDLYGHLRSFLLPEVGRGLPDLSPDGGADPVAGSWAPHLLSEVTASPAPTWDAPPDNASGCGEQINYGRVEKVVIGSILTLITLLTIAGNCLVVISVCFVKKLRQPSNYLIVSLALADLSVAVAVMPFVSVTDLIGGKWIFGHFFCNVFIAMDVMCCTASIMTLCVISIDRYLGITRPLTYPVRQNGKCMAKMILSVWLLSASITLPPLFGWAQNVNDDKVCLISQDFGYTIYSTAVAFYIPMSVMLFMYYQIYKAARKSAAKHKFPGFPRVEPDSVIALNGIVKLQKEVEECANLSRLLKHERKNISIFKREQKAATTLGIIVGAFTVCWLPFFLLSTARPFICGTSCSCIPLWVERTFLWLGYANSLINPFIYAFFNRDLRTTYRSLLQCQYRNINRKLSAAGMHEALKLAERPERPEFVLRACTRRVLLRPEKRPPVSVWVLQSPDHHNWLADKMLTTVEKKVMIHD

Row | Structure (SMILES) | EC50 (human TAAR1 receptors) [nM] | IC50 (human 5-HT2A receptor; [1]) [nM] | IC50 (human 5-HT7 receptor) [µM] | IC50 (human 5-HT2A receptor; [2]) [nM]
1 | CNCC1Cc2cc(Cl)ccc2Oc2cccnc21 (single isomer, unassigned) [Compound 122, (S*)-(8-chloro-10,11-dihydrobenzo[6,7]oxepino[3,2-b]pyridin-11-yl)-N-methylmethanamine] | < 1000 | < 1000 | 1 to 10 | 
2 | CNCC1Cc2cc(Cl)ccc2Oc2cccnc21 (single isomer, unassigned) [Compound 123, (R*)-(8-chloro-10,11-dihydrobenzo[6,7]oxepino[3,2-b]pyridin-11-yl)-N-methylmethanamine] | < 1000 |  | < 1 | < 1000
3 | NCC1Cc2ccc(Cl)cc2Oc2cccnc21 (single isomer, unassigned) [Compound 124, (S*)-(7-chloro-10,11-dihydrobenzo[6,7]oxepino[3,2-b]pyridin-11-yl)methanamine] | < 1000 | 1000 to 10000 | ≥ 10 | 
4 | NCC1Cc2ccc(Cl)cc2Oc2cccnc21 (single isomer, unassigned) [Compound 125, (R*)-(7-chloro-10,11-dihydrobenzo[6,7]oxepino[3,2-b]pyridin-11-yl)methanamine] | < 1000 | > 10000 | ≥ 10 | 
5 | CNCC1Cc2ccc(Cl)cc2Oc2cccnc21 (single isomer, unassigned) [Compound 126, (S*)-(7-chloro-10,11-dihydrobenzo[6,7]oxepino[3,2-b]pyridin-11-yl)-N-methylmethanamine] | < 1000 | < 1000 | ≥ 10 | 
6 | CNCC1Cc2ccc(Cl)cc2Oc2cccnc21 (single isomer, unassigned) [Compound 127, (R*)-(7-chloro-10,11-dihydrobenzo[6,7]oxepino[3,2-b]pyridin-11-yl)-N-methylmethanamine] | < 1000 |  | 1 to 10 | < 1000
7 | Cc1ccc2c(c1)CC(CN)c1ncccc1O2 (single isomer, unassigned) [Compound 128, (S*)-(8-methyl-10,11-dihydrobenzo[6,7]oxepino[3,2-b]pyridin-11-yl)methanamine] | < 1000 | 1000 to 10000 | 1 to 10 | 
8 | Cc1ccc2c(c1)CC(CN)c1ncccc1O2 (single isomer, unassigned) [Compound 129, (R*)-(8-methyl-10,11-dihydrobenzo[6,7]oxepino[3,2-b]pyridin-11-yl)methanamine] | < 1000 | < 1000 | < 1 | 
9 | CNCC1Cc2cc(C)ccc2Oc2cccnc21 (single isomer, unassigned) [Compound 130, (S*)—N-methyl-1-(8-methyl-10,11-dihydrobenzo[6,7]oxepino[3,2-b]pyridin-11-yl)methanamine] | < 1000 | < 1000 | 1 to 10 | 
10 | CNCC1Cc2cc(C)ccc2Oc2cccnc21 (single isomer, unassigned) [Compound 131, (R*)—N-methyl-1-(8-methyl-10,11-dihydrobenzo[6,7]oxepino[3,2-b]pyridin-11-yl)methanamine] | < 1000 |  | < 1 | < 1000
11 | Cc1ccc2c(c1)Oc1cccnc1C(CN)C2 (single isomer, unassigned) [Compound 132, (S*)-(7-methyl-10,11-dihydrobenzo[6,7]oxepino[3,2-b]pyridin-11-yl)methanamine] | < 1000 | > 10000 | ≥ 10 | 
12 | Cc1ccc2c(c1)Oc1cccnc1C(CN)C2 (single isomer, unassigned) [Compound 133, (R*)-(7-methyl-10,11-dihydrobenzo[6,7]oxepino[3,2-b]pyridin-11-yl)methanamine] | < 1000 | 1000 to 10000 | ≥ 10 | 
13 | CNCC1Cc2ccc(C)cc2Oc2cccnc21 (single isomer, unassigned) [Compound 134, (S*)—N-methyl-1-(7-methyl-10,11-dihydrobenzo[6,7]-oxepino[3,2-b]pyridin-11-yl)methanamine] | < 1000 | < 1000 | 1 to 10 | 
14 | CNCC1Cc2ccc(C)cc2Oc2cccnc21 (single isomer, unassigned) [Compound 135, (R*)—N-methyl-1-(7-methyl-10,11-dihydrobenzo[6,7]oxepino[3,2-b]pyridin-11-yl)methanamine] | < 1000 |  | 1 to 10 | < 1000
15 | NCC1Cc2c(F)cccc2Oc2cccnc21 (single isomer, unassigned) [Compound 136, (S*)-(9-fluoro-10,11-dihydrobenzo[6,7]oxepino[3,2-b]pyridin-11-yl)methanamine] | < 1000 | 1000 to 10000 | ≥ 10 | 
16 | NCC1Cc2c(F)cccc2Oc2cccnc21 (single isomer, unassigned) [Compound 137, (R*)-(9-fluoro-10,11-dihydrobenzo[6,7]oxepino[3,2-b]pyridin-11-yl)methanamine] | < 1000 | > 10000 | ≥ 10 | 
17 | CNCC1Cc2c(F)cccc2Oc2cccnc21 (single isomer, unassigned) [Compound 138, (S*)-1-(9-fluoro-10,11-dihydrobenzo[6,7]oxepino[3,2-b]pyridin-11-yl)-N-methylmethanamine] | < 1000 | < 1000 | ≥ 10 | 
18 | Cc1cccc2c1CC(CN)c1ncccc1O2 (single isomer, unassigned) [Compound 140, (S*)-(9-methyl-10,11-dihydrobenzo[6,7]oxepino[3,2-b]pyridin-11-yl)methanamine] | < 1000 | > 10000 | ≥ 10 | 
19 | Cc1cccc2c1CC(CN)c1ncccc1O2 (single isomer, unassigned) [Compound 141, (R*)-(9-methyl-10,11-dihydrobenzo[6,7]oxepino[3,2-b]pyridin-11-yl)methanamine] | < 1000 | < 1000 | ≥ 10 | 
20 | CNCC1Cc2c(C)cccc2Oc2cccnc21 (single isomer, unassigned) [Compound 143, (R*)-(9-methyl-10,11-dihydrobenzo[6,7]oxepino[3,2-b]pyridin-11-yl)-N-methylmethanamine] | < 1000 | < 1000 | ≥ 10 | 
21 | NCC1Cc2c(Cl)cccc2Oc2cccnc21 (single isomer, unassigned) [Compound 144, (S*)-(9-chloro-10,11-dihydrobenzo[6,7]oxepino[3,2-b]pyridin-11-yl)methanamine] | < 1000 | < 1000 | ≥ 10 | 
22 | NCC1Cc2c(Cl)cccc2Oc2cccnc21 (single isomer, unassigned) [Compound 145, (R*)-(9-chloro-10,11-dihydrobenzo[6,7]oxepino[3,2-b]pyridin-11-yl)methanamine] | < 1000 |  | ≥ 10 | < 1000
23 | CNCC1Cc2c(Cl)cccc2Oc2cccnc21 (single isomer, unassigned) [Compound 147, (R*)-(9-chloro-10,11-dihydrobenzo[6,7]oxepino[3,2-b]pyridin-11-yl)-N-methylmethanamine] | < 1000 | < 1000 | ≥ 10 | 
24 | Cc1ccc2c(n1)C(CN)Cc1ccccc1O2 (single isomer, unassigned) [Compound 149, (R*)-(2-methyl-10,11-dihydrobenzo[6,7]oxepino[3,2-b]pyridin-11-yl)methanamine] | < 1000 | < 1000 | ≥ 10 | 
25 | CNCC1Cc2ccccc2Oc2ccc(C)nc21 (single isomer, unassigned) [Compound 150, (R*)-(2-methyl-10,11-dihydrobenzo[6,7]oxepino[3,2-b]pyridin-11-yl)-N-methylmethanamine] | < 1000 | < 1000 | 1 to 10 | 
26 | CCc1ccc2c(n1)C(CN)Cc1ccccc1O2 (single isomer, unassigned) [Compound 151, (R*)-(2-ethyl-10,11-dihydrobenzo[6,7]oxepino[3,2-b]pyridin-11-yl)methanamine] | < 1000 | < 1000 | ≥ 10 | 
27 | CCc1ccc2c(n1)C(CNC)Cc1ccccc1O2 (single isomer, unassigned) [Compound 152, (R*)-(2-ethyl-10,11-dihydrobenzo[6,7]oxepino[3,2-b]pyridin-11-yl)-N-methylmethanamine] | < 1000 | < 1000 | 1 to 10 | 
28 | NCC1Cc2c(F)cncc2Oc2ccccc21 (single isomer, unassigned) [Compound 153, (R*)-(4-fluoro-5,6-dihydrobenzo[6,7]oxepino[2,3-c]pyridin-6-yl)methanamine] | < 1000 | < 1000 | ≥ 10 | 
